Test results: PMC8448514, “Exploratory comparisons between different anti-mitotics in clinically-used drug combination in triple negative breast cancer” (Oncotarget, 2021)

Key:
[1] = test system: breast cancer induced by MDA-MB-231; assay: Tumor volume monitoring in xenograft model; assay type: in vivo, mice; settings: used in combination with doxorubicin 10 mg/Kg and cyclophosphamide 100 mg/Kg; 4bt 80 mg/Kg, paclitaxel 10 mg/Kg
Protocol: Mice were anesthetized with ketamine (80 mg/kg of body weight) and xylazine (20 mg/kg of body weight) solution. 2 × 10^6 MDA-MB-231 cells in PBS/20% type I Collagen (100 μL) were inoculated in the fourth right mammary fat pad. After tumor establishment, about 5 weeks after inoculation, mice were randomized into experimental groups (n = 5 per group), and treatment started.

[2] = test system: Balb-c nude mice bearing breast tumor; assay: Red blood cell analysis (complete blood count); assay type: in vivo; settings: 20 mg/kg i.p., monotherapy; mean ± SEM
[3] = test system: tumor cell apoptosis; assay: TUNEL assay for apoptosis in tumor sections; assay type: in vivo, mice; settings: paclitaxel 20 mg/Kg; AC-T; AC-4bt; vs vehicle
Protocol: The level of apoptosis in tumor sections was determined by TUNEL assay. TUNEL staining was performed on paraffin-embedded sections using Click-iT™ TUNEL Colorimetric IHC Detection Kit (Invitrogen, Carlsbad – USA) according to the manufacturer’s protocol. Briefly, the sections were dewaxed, rehydrated, and immersed in 4% paraformaldehyde fixative solution for 15 minutes. They were then washed and incubated with proteinase K for 20 min at room temperature. The slides were washed with PBS for 5 minutes, and immersed in 4% paraformaldehyde fixative solution again for 5 minutes at room temperature. Slides were then washed with PBS (twice, for 5 minutes) and rinsed with deionized water. Samples were incubated in TdT Reaction Buffer for 10 minutes at 37°C. The TdT reaction buffer was gently removed using paper towels and slides were incubated with TdT Reaction Mixture for another hour at 37°C in a humidified chamber. After being rinsed with PBS, slides were immersed in 2X SSC for 15 minutes, in order to fully quench TdT reaction. Slides were washed with 1X Click-iT™ TUNEL Colorimetric Wash solution and incubated with the Click-iT™ TUNEL Colorimetric Reaction cocktail for 30 minutes at 37°C, protected from light. […]
After acquisition, images were submitted to a semi-quantitative analysis using the IHC Profiler plug-in (National Institute of Health) from ImageJ software. […]

[4] = test system: Balb-c nude mice bearing breast tumor; assay: Biochemical analysis of blood (liver and kidney toxicity); assay type: in vivo; settings: 20 mg/kg i.p., monotherapy
[5] = test system: KIF11; assay: Intratumoral KIF11 expression by immunofluorescence; assay type: in vivo, mice; settings: 4bt, 4bc 80 mg/Kg; paclitaxel 20 mg/Kg; AC-T; AC-4bt; vs vehicle
Protocol: In order to evaluate the role of KIF-11 inhibitors in some key features for tumor progression and development, we analyzed tumor sections for the levels of KIF-11, ALDH1-A1 and Ki67 expression by immunofluorescence (IF) or immunohistochemistry. Immunostaining was performed on 5 μm sections of formalin-fixed paraffin-embedded (FFPE) tissue. Tissue slides were baked, deparaffinized in xylene and passed through graded alcohols for rehydration. Antigen retrieval was achieved submitting samples to a 10 mM Trisodium Citrate solution, pH 6.0 in a steam pressure cooker at 100°C for 10 minutes. Slides were then left immersed in the Trisodium Citrate solution at room temperature for 20 minutes before being washed with PBS/0.025% Triton. The area around each section was delimited by a hydrophobic liquid blocker (PAP-Pen) in order to assure homogeneous distribution of reagents and antibodies.
(§1) Slides were then washed in PBS/0.025% Triton, incubated at room temperature in the dark with (1:500) Alexa Fluor 488-Anti-rabbit secondary antibody, for KIF-11 and Ki67, or (1:250) Goat anti-rabbit HRP, for ALDH1-A1 for 1 hour, washed three times with PBS. […] Slides for ALDH1-A1 analysis were counterstained with hematoxylin and analyzed under light microscope Axiovert (Zeiss, Germany).

[6] = Body weight and clinical monitoring
Protocol: (§2) Animals of all experimental groups were monitored with regards to their weight, behavior and clinical aspects. Animals body weight were assessed prior the beginning of treatment and twice a week throughout the experiment period as an important indicator of toxicity.
All treatments were administered intraperitoneally (i.p) (Figure 7).
Animal weight was also monitored with help of a digital scale twice a week.

[7] = test system: Balb-c/nude mice; assay: Behavioral observation (motor capacity, peripheral neuropathy); assay type: in vivo; settings: a few minutes after administration; paclitaxel 10 or 20 mg/Kg, 4bt 80 mg/Kg; monotherapy and drug combination
Protocol: as §2

[8] = test system: intratumoral necrotic area of MDA-MB-231 tumor; assay: Histopathological analysis of tumor sections (H&E); assay type: in vivo, mice; settings: monotherapy; 4bt, 4bc 80 mg/Kg, paclitaxel 20 mg/Kg; vs vehicle
Protocol: Tumors and lungs were fixed in 10% buffered formalin and processed for paraffin embedding. Processed material was sectioned at 5 μm, and sections were stained with hematoxylin & eosin (HE) for analysis under the light microscope Axiovert (Zeiss, Germany). Tumor and lung sections were analyzed for general histopathological assessment.

[9] = test system: ALDH1-A1; assay: ALDH1-A1 immunohistochemistry of tumor sections; assay type: in vivo, mice; settings: 4bt, 4bc 80 mg/Kg, paclitaxel 20 mg/Kg; vs vehicle
Text: After acquisition, images were submitted to a semi-quantitative analysis using the IHC Profiler plug-in (National Institute of Health) from ImageJ software. Images were submitted to a deconvolution process, and histogram profiles, corresponding to pixel intensity as well as a stain-positivity percentage value derived from a scoring system based on optical density, were automatically generated. Areas rated as highly positive or positive were considered for analysis.
In order to evaluate the role of KIF-11 inhibitors in some key features for tumor progression and development, we analyzed tumor sections for the levels of KIF-11, ALDH1-A1 and Ki67 expression by immunofluorescence (IF) or immunohistochemistry. Immunostaining was performed on 5 μm sections of formalin-fixed paraffin-embedded (FFPE) tissue. […]
as §1
For ALDH1-A1 quantification of positive areas, IHC Profiler plug-in was used as previously described for TUNEL analysis.

[10] = test system: Balb-c nude mice bearing breast tumor; assay: White blood cell and platelet analysis (complete blood count); assay type: in vivo; settings: 20 mg/kg i.p., monotherapy, mean ± SEM
[11] = test system: breast cancer; settings: cited from earlier work

With `CC(=O)O[C@H]1C(=O)[C@@]2(C)[C@H]([C@H](OC(=O)c3ccccc3)[C@]3(O)C[C@H](OC(=O)[C@H](O)[C@@H](NC(=O)c4ccccc4)c4ccccc4)C(C)=C1C3(C)C)[C@]1(OC(C)=O)CO[C@@H]1C[C@@H]2O` [Paclitaxel, paclitaxel] the Tumor volume [1] was “significantly decreasing the tumor volume”, the Hematocrit [2] was 42.56 ± 0.62 % and the Hemoglobin [2] was 12.80 ± 0.14 g/dL. The “MCH (mean corpuscular hemoglobin)” value [2] was 15.73 ± 0.05 pg, the “MCHC (mean corpuscular hemoglobin concentration)” value [2] was 30.07 ± 0.12 g/dL and the “MCV (mean corpuscular volume)” value [2] was 52.23 ± 0.42 fL. For the same molecule, the “RDW (red cell distribution width)” value [2] was 22.85 ± 0.98 %, the Red cells [2] was 8.15 ± 0.08 10^6/mm^3 and the “TUNEL positive area staining (apoptotic activity)” value [3] was “substantially increase positive area staining”. For the same molecule, the Creatinine [4] was < 0,2 mg/dL, the “ALP (alkaline phosphatase)” value ([4]; mean ± SEM) was 86.50 ± 10.5 U/L and the “ALT (alanine transaminase)” value ([4]; mean ± SEM) was 21.50 ± 1.50 UI/L. For the same molecule, the “AST (aspartate aminotransferase)” value ([4]; mean ± SEM) was 98.50 ± 21.50 UI/L, the “GGT (gamma-glutamyl transferase)” value ([4]; mean ± SEM) was less than 1 U/L and the “LDH (lactate dehydrogenase)” value ([4]; mean ± SEM) was 464.50 ± 50.5 U/L. For the same molecule, the Urea ([4]; mean ± SEM) was 59.00 ± 2.00 mg/dL, the “Intratumoral KIF11 expression” value [5] was “didn’t cause any change on KIF11 levels” and the Body weight change ([6]; cycles of paclitaxel 10 mg/Kg or 4bt 80 mg/Kg after AC) was “did not cause any further reduction”. For the same molecule, the Body weight change ([6]; monotherapy, 4bt and 4bc 80 mg/Kg, PTX 20 mg/Kg, 1 week after the beginning of treatment, no significant change afterwards) was “weight reduction”, the “Motor capacity / behavioral changes” value [7] was “reduced motor capacity” and the Intratumoral necrotic area [8] was “reduction in the size of necrotic area”. The ALDH1-A1 expression change [9] was “didn’t cause significant changes in ALDH1-A1 expression”, the “Basophils (%)” value [10] was 2 ± 1.25% and the “Basophils (Abs)” value [10] was 42.79 ± 22.69. The “Eosinophils (%)” value [10] was 0.00%, the “Eosinophils (Abs)” value [10] was 0.00 and the “Lymphocytes (%)” value [10] was 78.63 ± 2.36%. For the same molecule, the “Lymphocytes (Abs)” value [10] was 1682.24 ± 602.57, the “MPV (mean platelet volume)” value [10] was 7.07 ± 0.12 fL and the “Monocytes (%)” value [10] was 4.79 ± 3.74%. The “Monocytes (Abs)” value [10] was 102.51 ± 65.75, the “Neutrophils (%)” value [10] was 12.07 ± 5.10% and the “Neutrophils (Abs)” value [10] was 258.30 ± 103.76. For the same molecule, the Platelets [10] was 1070.01 ± 37.28 10^3/mm^3, the “WBC (white blood cells)” value [10] was 2139.39 ± 684.75 and the “WBC (white blood cells)” value ([10]; listed as paclitaxel) was 2139.39 ± 684.75.

In the case of `Cc1ccc(C(=O)N(CCCN)[C@@H](c2nc3cc(Cl)ccc3c(=O)n2Cc2ccccc2)C(C)C)cc1` [Ispinesib], the Neurotoxicity / tolerability ([11]; clinical) is given as “no indication of neurotoxicity” and the “Antitumor activity in phase I trial” value ([11]; phase I trial in breast cancer) is given as “relevant antitumor activity and stabilization of the disease”.
